Test results taken from patent US20250120920A1, “DRUG-DELIVERING NERVE WRAP” (UNIVERSITY OF UTAH RESEARCH FOUNDATION, priority 2019, published 2025).

What was measured:
[1] = tested on: whole chick DRGs; experiment: DRG neurite extension bioactivity verification assay; format: cell-based; details: 20 ng/ml FK506 positive control; 72 hours culture
Protocol: Fertilized chicken eggs (Merrills Poultry, ID, USA) were incubated at ˜39° C. under 100% relative humidity for 12 days. Dorsal root ganglions (DRG) were dissected from the embryos under a microscope. 24-well plates were coated with laminin (1 μg/ml), then 500 μL from each media sample was placed into 3 wells. DRGs were separated carefully from connective tissue for culturing and a single DRG was placed into each well. For comparison to known FK506 concentrations, DRGs were also grown in negative and positive control concentrations of FK506, 0 ng/ml and 20 ng/ml, respectively. Groups tested: 0 ng/ml FK506 (n=4), 20 ng/ml FK506 control (n=4), Day 4 collection of LD-Wrap (n=6), and Day 4 collection of HD-Wrap (n=8). amples were diluted in DMEM/F12+10% FBS and 1% Pen-Strep. HD-Wrap and LD-Wrap drug release test samples were diluted by a factor of 10 and 2, respectively. Drug release test samples average concentrations after dilution: Day 4 LD-Wrap—18.5 ng/ml FK506 and Day 4 HD-Wrap—23.1 ng/ml FK506. The plate was incubated for 72 hours at 37° C. and 5% CO2 to evaluate the released drug's bioactivity. […] Briefly, the area of the ganglion body (ADRG) and the total area of the DRG with the growing axons (Atot) were measured using ImageJ (ImageJ 1.31v, National Institutes of Health, Bethesda, USA). The average neurite length (lavg) was calculated by: lavg=(Atot/π)^1/2−(ADRG/π)^1/2. […]

[2] = format: physicochemical
Protocol: The inventors discovered that FK506, in particular, is subject to thermal degradation beginning at about 140° C. when incorporated into the preferred polymers within the preferred loading ranges as disclosed herein. While conventional PLLA and PLLA co-polymer hot-melt extrusion protocols call for temperatures exceeding 140° C., limiting the maximum temperature still allows for sufficient manufacturability while minimizing or preventing unwanted thermal degradation of the FK506.

temperature at which thermal degradation begins [2]: about 140 °C
SMILES: C=CC[C@@H]1/C=C(\C)C[C@H](C)C[C@H](OC)[C@H]2O[C@@](O)(C(=O)C(=O)N3CCCC[C@H]3C(=O)O[C@H](/C(C)=C/[C@@H]3CC[C@@H](O)[C@H](OC)C3)[C@H](C)[C@@H](O)CC1=O)[C@H](C)C[C@@H]2OC [FK506]
Average neurite extension [1]: 720±72.2 μm
